In PMC3648545, “A Phenylalanine to Serine Substitution within an O-Protein Mannosyltransferase Led to Strong Resistance to PMT-Inhibitors in Pichia pastoris” (PLoS ONE, 2013) one finds O-mannosylglycan site occupancy data, which are given here for one substance.

The target of the assay is T1, Pmt2p (PpPmt2p) (Komagataella phaffii, UniProt F2QTJ8).
T1 construct: gene PMT2; full-length native integral ER membrane protein in intact cells (chromosomal PMT2); Pmt1p-Pmt2p heterodimer, other PMTs also present; with Dolichyl-phosphate-mannose--protein mannosyltransferase 1
Put plainly: HPAEC-PAD of O-mannosylglycan site occupancy on mAb#[…] secreted by intact cells. In kind it is cell-based. To be noted: fed-batch fermentation, PMTi-4 8 µM (Figure 4 legend; Discussion prints 8 mM); read-out is total O-mannosylation by all PMTs, not isolated Pmt2p; direct binding not shown.

T1 sequence (F2QTJ8 entry or part of it): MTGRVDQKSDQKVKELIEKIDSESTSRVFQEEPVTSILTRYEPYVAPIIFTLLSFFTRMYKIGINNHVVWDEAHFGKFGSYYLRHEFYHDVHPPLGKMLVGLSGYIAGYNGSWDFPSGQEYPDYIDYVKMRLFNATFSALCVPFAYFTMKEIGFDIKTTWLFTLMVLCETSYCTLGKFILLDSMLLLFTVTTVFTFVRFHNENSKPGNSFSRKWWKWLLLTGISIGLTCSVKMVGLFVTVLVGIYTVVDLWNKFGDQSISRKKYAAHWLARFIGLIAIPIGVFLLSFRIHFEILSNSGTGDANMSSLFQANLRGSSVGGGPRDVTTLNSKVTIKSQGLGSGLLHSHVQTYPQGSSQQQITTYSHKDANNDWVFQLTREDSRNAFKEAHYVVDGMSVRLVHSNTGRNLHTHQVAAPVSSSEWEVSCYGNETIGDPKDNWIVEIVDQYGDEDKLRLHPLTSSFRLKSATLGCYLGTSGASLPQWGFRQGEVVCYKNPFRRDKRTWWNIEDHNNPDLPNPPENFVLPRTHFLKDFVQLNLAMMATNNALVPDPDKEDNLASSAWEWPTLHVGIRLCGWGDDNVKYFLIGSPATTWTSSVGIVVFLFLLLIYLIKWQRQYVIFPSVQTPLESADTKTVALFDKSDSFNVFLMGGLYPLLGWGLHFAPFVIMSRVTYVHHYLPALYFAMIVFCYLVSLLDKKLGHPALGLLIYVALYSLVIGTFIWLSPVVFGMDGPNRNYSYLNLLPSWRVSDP

Consider PMTi-4, for which the O-mannosylglycan site occupancy is reported as 3.1 O-mannose chains per mAb H2L2 (56 without inhibitor).
